Series [1] has as its system in-stent neointimal hyperplasia. As to the kind of experiment: Further studies with different total loading doses per stent, in-stent neointimal hyperplasia. It is filed as in vivo.
Series [2] deals with coronary arteries of pigs. As to the kind of experiment: Probucol and Melatonin biological-oil coated stents implanted in porcine coronary arteries, histopathology and morphometry at 4 weeks. In kind it is in vivo, Domestic crossbred pigs. Particulars: oil-coated loaded stents; for AS: Area stenosis (= 100 * (1 − LA/IEL)) / Inflammation (peri-strut inflammation score 1-3, mean) / Injury (arterial injury score, Schwartz grade 0-3, mean) / NIH: Neointimal hyperplasia (= IEL − LA) / LA: Lumen area: 4 weeks follow-up; for LA: Lumen area: Probucol 447+/−56 μg, Melatonin 367+/−47 μg per stent; for effect on arterial injury and inflammatory response (in words): compared to bare and/or oil-only stents. The procedure: Domestic crossbred pigs of both sexes weighing 20-25 kg were used. They were fed with a standard natural grain diet without lipid or cholesterol supplementation throughout the study. All animals were treated and cared for in accordance with the Belgium National Institute of Health Guidelines for care and use of laboratory animals.
In this study, bare Jostent Flexmaster stents (n=8), Bare stents dipped in a Biological oil coating (Oil Only; n=7), Bare stents dipped in a Probucol/Biological oil coating solution resulting in a total Probucol load of 447+/−56 μg/per stent (Pro, n=7) and Bare stents dipped in a Melatinin/Biological oil coating solution resulting in a total Melatonin load of 367+/−47 μg/stent (Mela, n=8). Stents were implanted in the coronary arteries of 15 pigs. All pigs were followed for 4 weeks to evaluate the peri-strut inflammatory response and neointimal formation.
Surgical procedure and stent implantation in the coronary arteries were performed according to the method described by De Scheerder et al. in “Local angiopeptin delivery using coated stents reduces neointimal proliferation in overstretched porcine coronary arteries.” J. Inves. Cardiol. 8:215-222; 1996, and in “Experimental study of thrombogenicity and foreign body reaction induced by heparin-coated coronary stents.” Circulation 95:1549-1553; 1997. The guiding catheter was used as a reference to obtain an oversizing from 10 to 20%.
Coronary segments were carefully dissected together with a 1 cm minimum vessel segment both proximal and distal to the stent. The segments were fixed in a 10% formalin solution. The middle part of each stent was harvested for histopathologic analysis. Tissue specimens were embedded in a cold-polymerizing resin (Technovit 7100, Heraus Kulzer GmbH, and Wehrheim, Germany). Sections, 5 microns thick, were cut with a rotary heavy duty microtome HM 360 (Microm, Walldorf, Germany) equipped with a hard metal knife and stained with hematoxylin-eosin, elastic stain and phosphotungstic acid hematoxylin stain. Light microscopic examination was performed by an experienced pathologist who was blinded to the type of stent used. Injury of the arterial wall due to stent deployment (and eventually inflammation induced by the polymer) was evaluated for each stent filament and graded as described by Schwartz et al. • Grade 0=internal elastic membrane intact, media compressed but not lacerated; • Grade 1=internal elastic membrane lacerated; • Grade 2=media visibly lacerated; external elastic membrane compressed but intact; • Grade 3=large laceration of the media extending through the external elastic membrane or stent filament residing in the adventitia.
Inflammatory reaction at each stent filament was carefully examined, searching for inflammatory cells, and scored as followed: • 1=sparsely located histolymphocytes surrounding the stent filament; • 2=more densely located histolymphocytes covering the stent filament, but no lymphogranuloma and/or giant cells formation found; • 3=diffusely located histolymphocytes, lymphogranuloma and/or giant cells, also invading the media. • Mean score=sum of score for each filament/number of filament present.

The subject of series [3] is porcine coronary model. The series is described as follows: Oil/solvent emulsion coated stents (500 μg) in a porcine coronary model, up to 3 months. To be noted: oil/solvent emulsion coating, 500 μg melatonin per stent. It is filed as in vivo. How it is done: (§1) In order to maintain significant melatonin concentrations for a longer period of time to obtain a durable anti-restenosis effect the present inventor has developed new methods to achieve a slower melatonin release. The drug was dissolved in a biocompatible emulsion of oil and a solvent wherein the drug is highly soluble. The stent was dipped in this emulsion several times and in between the different dipping steps air-dried using a warm laminar flow to evaporate the solvent and harden the drug/oil coating.
Using the same coating method, no effect of probucol was found.

The test system of series [4] is porcine coronary model. As to the kind of experiment: Directly (ethanol dip) coated stents in a porcine coronary model. In kind it is in vivo. Particulars: direct coating. The text has this: To get rid of the polymer, which remains always a concern when coating a drug on an endoluminal prosthesis, since several polymers have shown to be non biocompatible and to induce an inflammatory response leading to SMC proliferation and restenosis, the present inventor tried to coat melatonin directly to the surface of the endoluminal prosthesis. As endoluminal prosthesis use was made of a commercially available 316L stainless steel coronary stent (V-Flex Plus, 16 mm/3.0 mm, William Cook Europe) and the stent was dipped in a 20 mg/ml ethanol solution for 30 seconds. After removal the stent was air-dried using a warm laminar flow to evaporate the ethanol. Using this method a total melatonin load on the stent of 20 μg could be achieved. […] This could be explained by the 1) the potent free radical scavenging effect of melatonin, 2) the potent anti-inflammatory effect of melatonin, 3) maybe a direct effect on SMC proliferation, 4) the non toxic effect of melatonin on other mediators of the healing response.
In a next step the total load of melatonin was increased by using more concentrated melatonin/ethanol solutions. By doing so a maximum total load of 300 μg/ stent could be achieved.

The nature of series [5]: In-vivo melatonin coronary vascular concentration after direct-coated stent. Particulars: direct coating. The text has this:
(§2) A disavantage of the direct coating system is the fast release of the drug from the stent.

The nature of series [6]: In-vitro release of drug from coated stent. It is filed as physicochemical. The procedure:
as §2, §1

“Also recorded” adds a separate entry of the source.

On to `CC(C)(Sc1cc(C(C)(C)C)c(O)c(C(C)(C)C)c1)Sc1cc(C(C)(C)C)c(O)c(C(C)(C)C)c1` [Probucol], for which, in series [1] (Probucol total loading doses 10-2000 μg per stent), the “effect on in-stent neointimal hyperplasia” value is reported as “no significant effect”. In series [2] (4 weeks), the “effect on neointimal hyperplasia compared to bare and oil-only stents (in words)” value is given as “no significant effect”; the “effect on arterial injury and inflammatory response (in words)” value was “could decrease arterial injury and inflammatory response”. Moreover, in series [2], the “AS: Area stenosis (= 100 * (1 − LA/IEL))” value was found to be 24 ± 14%; the “Inflammation (peri-strut inflammation score 1-3, mean)” value is 1.03 ± 0.08; the “Injury (arterial injury score, Schwartz grade 0-3, mean)” value came out at 0.28 ± 0.20; the “NIH: Neointimal hyperplasia (= IEL − LA)” value stood at 1.43 ± 0.77 mm2. Also, the “LA: Lumen area” value in series [2] is reported as 4.46 ± 1.06 mm2. Besides, the “Inflammation (peri-strut inflammation score 1-3, mean)” value in series [2] (listed as Probutol) is on record as 1.03±0.08. For the same compound, the “effect on peri-strut inflammation and neointimal hyperplasia” value in the series with porcine coronary model [3] is recorded as “no effect”. The “effect on inflammatory response and neointimal hyperplasia” value in the series on porcine coronary model [4] (similar experiments as 20 μg melatonin stents) is reported as “did not result in a significant effect”.

As for `COc1ccc2[nH]cc(CCNC(C)=O)c2c1` [Melatonin, N-acetyl-5-methoxytryptamine], in series [1] (dose depending response, already observed for a dose of 0.5 μg/mm^2 stent area), the “effect on neointimal hyperplasia” value was “significant inhibition”. Moreover, the “duration of sufficient melatonin coronary vascular concentration” value in series [5] was “up to 15 days”. In series [2] (4 weeks), the “effect on neointimal hyperplasia compared to bare and oil-only stents (in words)” value is “significant decrease”; the “lumen area compared with the other groups (in words)” value is “larger than the other groups”; the “effect on arterial injury and inflammatory response (in words)” value is reported as “the injury score was dramatically decreased; also recorded: minimal inflammatory response”. Further, in series [2], the “AS: Area stenosis (= 100 * (1 − LA/IEL))” value is given as 16±7%; the “Inflammation (peri-strut inflammation score 1-3, mean)” value is listed as 1.00±0.00; the “Injury (arterial injury score, Schwartz grade 0-3, mean)” value worked out at 0.08 ± 0.09; the “NIH: Neointimal hyperplasia (= IEL − LA)” value stood at 0.89±0.28 mm2. Moreover, the “LA: Lumen area” value in series [2] turned out to be 5.10 ± 1.40 mm2. Also, the “effect on peri-strut inflammation and neointimal hyperplasia” value in the series with porcine coronary model [3] was “Sustained inhibition of peri-strut inflammation and neointimal hyperplasia”. The compound further gave an In-vitro release in series [6] (direct coating, within 24 hours) of 90%. Moreover, the melatonin release period result in series [6] (oil/solvent emulsion coating, total load 500 μg per stent) was “weeks instead of days”. For the same compound, the “biocompatibility / inflammation surrounding the struts on histological examination” value with porcine coronary model [4] (20 μg per stent, follow-up after 5 days) was “without inducing any inflammation”. In the series on porcine coronary model [4] (high dose, maximum total load 300 μg/stent), the “effect on inflammatory response and neointimal hyperplasia” value is “efficient blocking of inflammatory response and neointimal hyperplasia”. In addition, the “decrease in neointimal hyperplasia compared to a bare stent” value in the series on porcine coronary model [4] (total load 20 μg per stent, after 4 weeks) turned out to be 26%.

The values are drawn from patent publication US20070005124A1, “Endoluminal prosthesis comprising a therapeutic agent” (Blue Medical Devices B.V., priority 2003, published 2007).
